From PubChem BioAssay (NCI)
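Protocol summary: plate cells (96-well), add compound at 5 concentrations, incubate 48 h, interpolate endpoints linearly. TGI is the concentration that stops growth completely.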

What was measured:
Experiment in all cases: NCI anticancer screen, dose series, 48 h
T-47D breast = tested on: T-47D breast
NCI/ADR-RES ovarian = tested on: NCI/ADR-RES ovarian
NCI-H460 lung = tested on: NCI-H460 lung
786-0 renal = tested on: 786-0 renal
EKVX NSCLC = tested on: EKVX NSCLC
COLO 205 colon = tested on: COLO 205 colon
NCI-H226 lung = tested on: NCI-H226 lung
MDA-MB-231 breast = tested on: MDA-MB-231 breast
IGROV1 ovarian = tested on: IGROV1 ovarian
SK-OV-3 ovarian = tested on: SK-OV-3 ovarian
SK-MEL-28 melanoma = tested on: SK-MEL-28 melanoma

SMILES | TGI (T-47D breast) [µM] | TGI (NCI/ADR-RES ovarian) [µM] | TGI (NCI-H460 lung) [µM] | TGI (786-0 renal) [µM] | TGI (EKVX NSCLC) [µM] | TGI (COLO 205 colon) [µM] | TGI (NCI-H226 lung) [µM] | TGI (MDA-MB-231 breast) [µM] | TGI (IGROV1 ovarian) [µM] | TGI (SK-OV-3 ovarian) [µM] | TGI (SK-MEL-28 melanoma) [µM]
C=CC(Br)(CBr)CCC(Br)C(C)C (configuration not stated) | 0.971 | 33.8 | 18.4 | 2.93 | 32.3 | 19.8 | 30.8 | 10.3 | 11.1 | 30.2 | 16.8
CC(=O)N(CN1C(=O)CCC1C(=O)O)c1ccccc1Cl (configuration not stated) | > 100 | > 100 | > 100 | > 100 | > 100 | > 100 | > 100 | > 100 | > 100 | > 100 | > 100
CN1C(=O)N(C)C2(CCN(CCCCCCF)CC2)C1=O | > 100 | > 100 | – | > 100 | > 100 | > 100 | > 100 | > 100 | > 100 | > 100 | > 100
O=C1c2cc([N+](=O)[O-])sc2C(=O)c2ccsc21 | 1.53 | 2.78 | 0.853 | 0.948 | 3.01 | 1.66 | 3.09 | 1.15 | 0.878 | 2.95 | 0.555
Cc1sc2nc3n(c(=O)c2c1C)N=C(c1ccc([N+](=O)[O-])cc1)CS3 | > 100 | > 100 | > 100 | > 100 | > 100 | > 100 | > 100 | > 100 | – | > 100 | > 100
CCN(CC)CCNc1ccc2ncn3c4cc(=O)ccc4c(O)c1c23 | – | – | 9.61 | 14.9 | 23 | 16.6 | 11.4 | – | 24.3 | 41.9 | 16.9
COCCNC1CCC2(SCCS2)c2[nH]c3ccccc3c21 (configuration not stated) | – | > 100 | > 100 | > 100 | > 100 | 82.5 | > 100 | 54.1 | > 100 | – | > 100
O=C(O)CC(O)(C(=O)O)C(O)C(=O)O (configuration not stated) | > 1000 | > 1000 | > 1000 | > 1000 | > 1000 | > 1000 | > 1000 | > 1000 | > 1000 | > 1000 | > 1000
O=C1N[C@@H](COc2ccc(C=Nc3ccc(CCc4ccc(N=Cc5ccc(OC[C@@H]6COC(=O)N6)cc5)cc4)cc3)cc2)CO1 | > 100 | > 100 | – | > 100 | > 100 | > 100 | > 100 | > 100 | > 100 | > 100 | > 100
CCCCNC(=S)Nc1nc(C(=O)NNC(=O)c2ccccc2)cs1 | 39.4 | 64.2 | – | 35.2 | > 100 | 27.3 | 67.8 | 29 | 40.6 | 35.3 | –
CC(=O)OCC1OC(N2C(S)=C(C#N)C(c3ccco3)C(C(C)=O)=C2c2ccccc2)C(OC(C)=O)C(OC(C)=O)C1OC(C)=O (configuration not stated) | > 100 | > 100 | > 100 | > 100 | – | > 100 | > 100 | > 100 | > 100 | – | > 100
CC1CC[C@@]2(OC1)OC1C[C@H]3[C@@H]4CCC5CC(O)CC[C@]5(C)[C@H]4C/C(=N\N(C)C)[C@]3(C)C1[C@@H]2C (some centres not stated) | > 100 | 41.4 | > 100 | 49.8 | – | 45 | > 100 | 50.2 | > 100 | 47 | > 100
Cc1cccc(NC2=NCCO2)c1Cl | > 100 | > 100 | > 100 | > 100 | > 100 | > 100 | > 100 | > 100 | > 100 | > 100 | > 100
C#CCCCC(=O)N(C(=O)CS(=O)CC)c1ccccc1 (configuration not stated) | > 100 | > 100 | > 100 | > 100 | > 100 | > 100 | > 100 | > 100 | > 100 | > 100 | > 100
O=C(Oc1cccc(Cl)c1)c1cc2cc(CCl)ccc2oc1=O | > 100 | > 100 | > 100 | > 100 | > 100 | 45.9 | > 100 | > 100 | > 100 | > 100 | > 100
Brc1cccc[n+]1-c1ccc2cc(-[n+]3ccccc3Br)ccc2c1 | 58.4 | > 100 | > 100 | 69 | > 100 | > 100 | > 100 | 85.6 | 28 | 55.6 | > 100
c1ccc(CCn2cncn2)cc1 | – | – | > 100 | – | > 100 | > 100 | > 100 | – | > 100 | > 100 | > 100
C=CCC(CNC(=O)OCc1ccccc1)OC(=O)OCc1ccccc1 (configuration not stated) | > 100 | > 100 | > 100 | > 100 | > 100 | > 100 | > 100 | > 100 | > 100 | > 100 | > 100
CC1CN=C(c2ccc(COc3ccc(C4=NCC(C)N4)cc3)cc2)N1 (configuration not stated) | > 100 | > 100 | > 100 | > 100 | > 100 | > 100 | – | > 100 | > 100 | > 100 | > 100
O=S(=O)(/N=C(\NO)Nc1ccc(Cl)cc1)c1ccc(-c2ccccn2)s1 | > 100 | > 100 | > 100 | – | 98.8 | > 100 | > 100 | > 100 | > 100 | > 100 | > 100
COc1ccc(C[C@@H]2OC3(C=CC(=O)C=C3)O[C@H]2Cc2ccc(OC)cc2)cc1 | > 100 | 2.64 | 25.1 | 0.412 | 3.7 | 2.79 | 0.652 | 4.15 | 1.16 | 13.5 | 3.13
